Tests used:
HEp-2 [1] = experiment: Compound was evaluated for cytotoxicity against H.Ep.-2 (AK-) cells and concentration required to inhibit the growth of treated cells to 50% of untreated control; type: functional, cell-based; conditions: Homo sapiens
HEp-2 [2] = experiment: Compound was evaluated for cytotoxicity against H.Ep.-2 cells, and concentration required to inhibit the growth of treated cells to 50% of untreated control.; type: functional, cell-based; conditions: Homo sapiens
HEp-2 [3] = experiment: Compound was evaluated for cytotoxicity against H.Ep.-2 cells and concentration required to inhibit the growth of treated cells to 50% of untreated control was reported; type: functional, cell-based; conditions: Homo sapiens
L1210 (1565) [4] = experiment: (§1) Compound was evaluated for cytotoxicity against L-1210 (AK-) cells, and concentration required to inhibit the growth of treated cells to 50% of untreated control.; type: functional, cell-based; conditions: Mus musculus
L1210 (1565) [5] = experiment: Compound was evaluated for cytotoxicity against L-1210 cells, and concentration required to inhibit the growth of treated cells to 50% of untreated control.; type: functional, cell-based; conditions: Mus musculus
[6] = system: S-adenosyl-L-homocysteinase (Mus musculus); experiment: Inhibition of S-adenosyl-L-homocysteinase from L-1210 cells
L1210 (1565) [7] = experiment: as §1; type: functional, cell-based; conditions: Mus musculus; remark: listed apart in the source

Q: Which results are given for Nc1ncnc2c1ccn2[C@@H]1O[C@H](CO)[C@@H](O)[C@H]1O [TUBERCIDIN]?
A: IC50 (HEp-2 [1]): > 3 µM; IC50 (HEp-2 [2]): 0.002 µM

Q: With Nc1[nH]ccc2ncnc1-2 as the molecule, how does the IC50 (HEp-2 [3]) read?
A: 7 µM

Q: Nc1ncnc2c1ccn2[C@@H]1C[C@H](CO)[C@H](O)C1O (stereo not given in full) was tested. Which IC50 (HEp-2 [2]) did it give?
A: 1.4 µM

Q: And the IC50 (L1210 (1565) [4])?
A: > 40 µM

Q: And the IC50 (L1210 (1565) [5])?
A: 4 µM

Q: What about the Ki [6] of the same molecule?
A: 44 µM

Q: Nc1ncnc2[nH]ccc12 was tested. Which IC50 (HEp-2 [2]) did it give?
A: > 70 µM

Q: Which results are given for Nc1ncnc2c1ncn2[C@@H]1O[C@H](CO)[C@@H](O)[C@H]1O [ADENOSINE]?
A: IC50 (HEp-2 [1]): 20 µM; IC50 (HEp-2 [2]): 0.7 µM

Q: Which results are given for Nc1nccc2c1ncn2[C@@H]1C[C@H](CO)[C@H](O)C1O (stereo not given in full)?
A: IC50 (HEp-2 [2]): 0.6 µM; IC50 (L1210 (1565) [4]): 1 µM; IC50 (L1210 (1565) [5]): 4 µM; IC50 (L1210 (1565) [7]): 1 µM

Q: For Nc1nccc2c1ncn2[C@@H]1O[C@H](CO)[C@@H](O)[C@H]1O, which IC50 (HEp-2 [2]) is on record?
A: 20 µM

Reference: ChEMBL document CHEMBL1122762, “(+/-)-3-(4-Amino-1H-pyrrolo[2,3-d]pyrimidin-1-yl)-5-(hydroxymethyl)- (1 alpha,2 alpha,3 beta,5 beta)-1,2-cyclopentanediol, the carbocyclic analogue of tubercidin” (J Med Chem, 1984)
